This is an account of results in patent US11364219B2, “Methods and pharmaceutical compositions for treating microbiome dysregulations associated with circadian clock disruption” (INSERM (INSTITUT NATIONAL DE LA SANTÉ ET DE LA RECHERCHE …, priority 2016, dated 2022).

In test [1] the test system is Csnk2. To be noted: Csnk2 inhibitors listed as examples; cited from earlier work.
Test [2] relates to gut microbiota. Kind of test: 16S rRNA gene sequencing of gut microbiota, wild-type mice. In kind it is in vivo, mouse. From the text: (§1) Mice and reagents. The Nlrp6-3xFlag-IRES-eGFP mouse was generated at the Institut Clinique de la Souris (Illkirch, France; further details available upon request). Age- and gender-matched Nlrp6-deficient (Nlrp6−/−) and control C57BL6/J mice had free access to a standard laboratory chow diet in a half-day light cycle exposure and temperature-controlled environment. All animal studies were approved by the local investigational review board (CEEA232009R) in an accredited establishment (N° B59-108) according to governmental guidelines N° 86/609/CEE. The experimental model of colitis was performed as previously described 10. Tissue and blood sampling was performed under LD conditions, with ZTO being the start of the light period (8 a.m.) and ZT12 the vespertinal crepuscule (8 p.m.). Apigenin (750 μg/mouse; Santa Cruz) was intraperitoneally given twice a week at ZT6 for 1 or 3 weeks period.
Microbiota analysis. 16S rRNA gene variable region V3 and V4 was amplified using dual indexed fusion primers, in brief primers consist of illumina linker sequence, 12 base barcode sequence and heterogeneity spacer followed by either 16S rRNA gene specific forward (319F: […]; SEQ ID NO: 1) or reverse (806R: […]; SEQ ID NO: 2) primer sequences 29. […] Amplicons quantities were normalized using SEQUALPREP™ kit (Invitrogen) and pooled as a single library. […] Sequencing reads were primarily processed for quality control using the software MOTHUR. Forward and reverse reads were assembled to form contigs, reads not having perfectly matched specific primers and barcodes, having any ambiguous base and more than 8 homopolymers were removed from downstream analysis. Sequences not aligning to desired bacterial V3-V4 variable regions, suspected chimera and likely to be of non-bacterial origin were detected and removed. […] Indicator analysis was performed to identify prominent OTUs contributing to the differences between analysed groups. Non parametric Shannon index of diversity was calculated as a measure of alpha diversity index. Statistical differences were determined by non-parametric Mann-Whitney Test.

The subject of test [3] is DSS-induced colitis. The test is described as follows: DSS colitis model in wild-type mice pre-treated with apigenin. In kind it is in vivo, mouse.
Source text: as §1
Immunohistochemistry, Immunofluorescence and histological analysis. Intestinal tissue was fixed in formalin, dehydrated in series of increasing concentration of alcohols and toluene before being embedded in paraffin. For immunohistochemistry, 5 μm-thick tissue sections were placed on Superfrost Plus slides (Thermo Scientific), incubated for 10 min at 60° C. and rehydrated through a series of graded alcohols and distilled water. Endogenous peroxidases were blocked by 3% hydrogen peroxide for 10 min. Antigen retrieval was performed in citrate buffer (10 mM, pH 6) by steaming sections in a microwave oven for 20 min. Tissue sections were blocked with 5% BSA/PBS for 30 min at RT and primary Ab against either Ki67 (1:100, ab15580, Abcam), M2 Ab to Flag (1:100, F3165, Sigma) or cleaved caspase3 (1:50, 9661, Cell Signalling) was directly applied and incubated one hour at room temperature (RT) or overnight at 4° C. Slides were washed 3× in PBS before applying either secondary peroxidase-conjugated goat anti-rabbit IgG (1:100, Interchim) or peroxidase conjugated goat anti-mouse IgG (1:100, Interchim) Ab two hours at RT. Targeted antigens were visualized by using 3.3′-diaminobenzidine solution (BD Pharmingen) followed by nuclear counterstain with hematoxylin. Immunofluorescence staining procedure was done by incubation overnight at 4° C. of primary antibody against Lysozyme (A0099, Dako) at 1:1000 according to the protocol provided by Cell Signalling Technology. Secondary Ab (1:200, A11008, Life Technologies) was applied for 1 hour at RT followed by nuclear counterstain with DAPI. Tissue sections were covered by using ProLong® Gold Antifade reagent (Life Technologies). Microscopic analyses were performed by using the Zeiss Axioplan 2 imaging microscope, Axio Imager Z1 microscope, Axiovision software (all from Zeiss, Oberkochen, Germany), and ImageJ software. Staining of cryosections […] was performed to stain GFP on colonic tissue according to manufacturer's instructions (Cell Signaling Technology). Polyclonal rabbit anti-GFP Ab (1/1000, Molecular Probes) and monoclonal rat anti-integrin 6 Ab (1/100, BD Pharmingen) were used as primary Abs and incubated together on the samples for 3 hours at RT. Secondary AF488-coupled goat anti-rabbit Ab and AF594-coupled goat anti-rat Ab (1:500, Molecular Probes) applied for 1 hour at RT followed by counterstain with DAPI. Sections were covered with Mowiol.

In test [4] the test system is gut microbiota. Kind of test: 16S rRNA gene sequencing of gut microbiota, Nlrp6-deficient mice. In kind it is in vivo, mouse. The following applies: apigenin- versus vehicle-treated Nlrp6-deficient mice, ANOSIM p=0.283.
Source text: as §1, with “Tissue and blood sampling was performed under LD conditions, with ZTO being the start of the light period (8 a.m.) and ZT12 the vespertinal crepuscule (8 p.m.). Apigenin (750 μg/mouse; Santa Cruz) was intraperitoneally given twice a week at ZT6 for 1 or 3 weeks period.” left out
Microbiota analysis. […] Amplicons quantities were normalized using SEQUALPREP™ kit (Invitrogen) and pooled as a single library. […] Sequencing reads were primarily processed for quality control using the software MOTHUR. Forward and reverse reads were assembled to form contigs, reads not having perfectly matched specific primers and barcodes, having any ambiguous base and more than 8 homopolymers were removed from downstream analysis. Sequences not aligning to desired bacterial V3-V4 variable regions, suspected chimera and likely to be of non-bacterial origin were detected and removed. […] Indicator analysis was performed to identify prominent OTUs contributing to the differences between analysed groups. […] Statistical differences were determined by non-parametric Mann-Whitney Test.

Test [5] has as its system DSS-induced colitis. Kind of test: DSS colitis model in Nlrp6-deficient mice pre-treated with apigenin. In kind it is in vivo, mouse.
Source text: as §1
Immunohistochemistry, Immunofluorescence and histological analysis. Intestinal tissue was fixed in formalin, dehydrated in series of increasing concentration of alcohols and toluene before being embedded in paraffin. For immunohistochemistry, 5 μm-thick tissue sections were placed on Superfrost Plus slides (Thermo Scientific), incubated for 10 min at 60° C. and rehydrated through a series of graded alcohols and distilled water. Endogenous peroxidases were blocked by 3% hydrogen peroxide for 10 min. Antigen retrieval was performed in citrate buffer (10 mM, pH 6) by steaming sections in a microwave oven for 20 min. Tissue sections were blocked with 5% BSA/PBS for 30 min at RT and primary Ab against either Ki67 (1:100, ab15580, Abcam), M2 Ab to Flag (1:100, F3165, Sigma) or cleaved caspase3 (1:50, 9661, Cell Signalling) was directly applied and incubated one hour at room temperature (RT) or overnight at 4° C. Slides were washed 3× in PBS before applying either secondary peroxidase-conjugated goat anti-rabbit IgG (1:100, Interchim) or peroxidase conjugated goat anti-mouse IgG (1:100, Interchim) Ab two hours at RT. […]

In test [6] the test system is colonic IECs. Kind of test: Colonic IEC proliferation immunostaining (Ki67), Nlrp6-deficient mice. The format is in vivo, mouse. To be noted: three-week regimen of apigenin.
Source text: as §1
(§2) Immunohistochemistry, Immunofluorescence and histological analysis. Intestinal tissue was fixed in formalin, dehydrated in series of increasing concentration of alcohols and toluene before being embedded in paraffin. For immunohistochemistry, 5 μm-thick tissue sections were placed on Superfrost Plus slides (Thermo Scientific), incubated for 10 min at 60° C. and rehydrated through a series of graded alcohols and distilled water. Endogenous peroxidases were blocked by 3% hydrogen peroxide for 10 min. […]

Test [7] concerns clock machinery genes. The test is described as follows: Microarray and qRT-PCR gene expression after apigenin administration. In kind it is in vivo, mouse.
Source text: as §1
Gene expression and microarray analysis. […] The resulting cDNA (equivalent to 5 ng of total RNA) was amplified using the SYBR Green real-time PCR kit and detected on a Stratagene Mx3005P (Agilent Technologies). […] Relative mRNA levels (2-Ct) were determined by comparing (a) the PCR cycle thresholds (Ct) for the gene of interest and Actb (ΔCt) and (b) ΔCt values for treated and control groups (ΔCt). […]
Background: Real-time PCR tracks product formation cycle by cycle.

In test [8] the test system is colonic IECs. The test is described as follows: Colonic IEC proliferation and apoptosis immunostaining (Ki67, caspase-3), wild-type mice. The format is in vivo, mouse.
Source text: as §1, §2

Test [9] concerns mouse embryonic fibroblasts (MEFs). To be noted: U0126 treatment, data not shown.
The mark [10] stands for this setting: wild-type mice, DSS, apigenin administration.

The structures appear in SMILES notation.

A word on the IC50: it is the concentration that gives 50% inhibition. Consider `O=C1C=C2CC3(O)COc4c(ccc(O)c4O)C3=C2C=C1O` (stereo not shown) [hematein, 3,4,6a,10-tetrahydroxy-6,7-dihydroindeno[2,1-c] chromen-9-one], for which the IC50 in test [1] was 0.55 µM.
As for `O=C(O)Cc1c2ccccc2n2c1[nH]c(=O)c1ccccc12` [IQA, 5-oxo-5,6-dihydroindolo-(1,2-a) quinazolin-7-yl acetic acid], in test [1], the IC50 is 0.39 µM.
In the case of `O=c1cc(-c2ccc(O)cc2)oc2cc(O)cc(O)c12` [apigenin, 4′,5,7-trihydroxyflavone], in [2] (apigenin treatment in wild-type mice), the “Clostridium sensu stricto and unclassified Ruminococcacceae” value was “reduction”. Also, the “genera derived from Bacteroidetes (Alistipes, Parasatuerlla, Bacteroides)” value in test [2] (apigenin-induced changes among bacterial OTUs) was “expansion”. For the same compound, the “gut microbiota composition versus controls” value in [2] (apigenin-treated wild-type mice, ANOSIM on Jaccard distances, p=0.015) was “markedly different”. Further, the anti-inflammatory effect result in [3] (mice housed in darkness for three circadian cycles during DSS exposure) was “no anti-inflammatory effect”. Further, in test [3] (wild-type mice on LD cycles, apigenin 3 weeks (750 μg/mouse, twice a week) before 2% DSS), the body-weight loss entry is given as “less severe body-weight loss”. Also, in test [3] (setting [10]), the colon length entry was “greater colon length” and the disease-activity index entry was “lower disease-activity index”. Also, the “infiltration of inflammatory cells (H&E-stained colon sections)” value in test [3] (wild-type mice, DSS, versus controls) is “reduced infiltration of inflammatory cells”. Moreover, the “global changes in the composition of the gut microbiota” value in [4] is “failed to observe global changes”. The “wasting disease (body weight loss)” value in test [5] (apigenin 3 weeks before 2% DSS) is “failed to improve wasting disease”. Besides, in test [5] (apigenin, DSS), the colon length entry is on record as “did not alter colon length” and the “inflammation in histological analysis” value is listed as “had no effect on inflammation”. Moreover, in test [6], the “anti-proliferative effect (Ki67)” value was “abrogated”. Also, the “colonic transcript levels of several clock machinery genes (qRT-PCR)” value in test [7] (apigenin administration, through Nlrp6) is reported as “significantly influenced”. In addition, the “genes differentially expressed (microarray)” value in test [7] (wild-type mice, Logfc of 1.5, upon apigenin administration) is reported as 54. Also, the “number of caspase-3 positive IECs” value in [8] (three-week regimen of apigenin) is “without any change”. Besides, in test [8] (three-week regimen of apigenin (750 μg/mouse, twice a week)), the “IEC proliferation (Ki67 Ab staining)” value is “lowered IEC proliferation”.
In the case of `O=C(O)/C=C/c1ccc[c]([Sb](=[O])([OH])[OH])c1` [compound 10, (E)-3-(3-stibonophenyl)prop-2-enoic acid], the IC50 in [1] was 0.15 µM.
As to `O=C(O)c1ccc2c(c1)nc(Nc1cccc(Cl)c1)c1ccncc12` [CX-4945, 5-(3-Chloro-phenylamino)-benzo[c] [2,6] naphthyridine-8-carboxylicacid], the IC50 in test [1] was 0.002 µM.
Usually Ki stands for a dissociation constant, usually derived from enzyme kinetics or from competition with a known ligand. On to `Cc1cc(O)c2c(c1)C(=O)c1cc(O)cc(O)c1C2=O` [emodin, 6-methyl-1,3,8-trihydroxyanthraquinone], for which, in test [1], the Ki was 1.5 µM.
In the case of `O=c1c2c(O)cccc2oc2c([N+](=O)[O-])ccc(O)c12` [MNX, 1,8-dihydroxy-4-nitro-xanthen-9-one], the Ki in [1] is 0.8 µM.
As for `O=C(O)c1cc(Br)c(Br)c(Br)c1` [compound 26, 3,4,5 tribromobenzoic acid], the IC50 in test [1] was 0.64 µM.
`CC(C(=O)O)N1C(=O)c2c(I)c(I)c(I)c(I)c2C1=O` (stereo not shown) [TID46, 2-(4,5,6,7-tetraiodo-1,3-dioxo-1,3-dihydro-2Hisoindol-2-yl)propanoic acid]: the IC50 in [1] was 0.15 µM.
For `N#CC(=C(/N)Sc1ccccc1N)/C(C#N)=C(\N)Sc1ccccc1N` [U0126], in [9], the “growth rate of treated wild-type MEFs versus similarly treated Nlrp6-deficient MEFs” value is on record as “comparable”.
With `Cc1ccc2c(c1S(=O)(=O)O)SC(c1ccc3c(c1)SC(c1ccc(N(C)C)cc1)N3C)N2C` (stereo not shown) [compound 1, 2′-(4-Dimethylamino-phenyl)-3,6,3′-trimethyl-[2,6′]bibenzothiazolyl-7-sulfonic acid], the IC50 in [1] was 0.5 µM.
`Brc1c(Br)c(Br)c2[nH]cnc2c1Br` [TBI, 4,5,6,7-1H-tetrabromobenzimidazole]: the Ki in test [1] was 0.3 µM.
On to `O=C(O)c1c[nH]c2c(Cl)cc(Cl)c(Cl)c2c1=O` [compound 7, 5,6,8-trichloro-4-oxo-1,4-dihydroquinoline-3-carboxylic acid], for which, in [1], the Ki was 0.06 µM.
As to `O=C(O)c1c(Br)c(Br)c(Br)c(Br)c1-c1c2ccc(=O)cc-2oc2cc(O)ccc12` [compound 35, 2,3,4,5-tetrabromo-6-(6-hydroxy-3-oxo-3H-xanthen-9-yl)-benzoic acid], the IC50 in [1] was 0.08 µM.
Take `O=C(O)/C=C/c1cc(Br)c(Br)c(Br)c1Br` [TBCA, (E)-3-(2,3,4,5-tetrabromophenyl)acrylic acid]: the Ki in [1] is 0.077 µM.
